Results as given in US8637472B2, “Optimized dengue virus entry inhibitory peptide (10AN)” (University of Washington Through Its Center for …, priority 2007, dated 2014).
Residues, ends and D or L forms follow the SMILES beside them.

Test system: LLCMK-2 cells
Assay: Cytotoxicity assay (TACS MTT, mitochondrial reductase activity)
Format: cell-based, African green monkey
Settings: confluent LLCMK-2 monolayers; concentration ranges that showed viral inhibition; compared to medium only controls
Procedure: The cytotoxicity of the chemistries was measured by monitoring mitochondrial reductase activity using the TACS™ MTT cell proliferation assay (R&D Systems, Inc., Minneapolis, Minn.) according to the manufacturer's instructions. Dilutions of chemistries in serum-free DMEM were added to confluent monolayers of LLCMK-2 cells in 96-well plates for 1 h at 37° C., similar to the focus forming inhibition assays, and subsequently incubated at 37° C. with 5% (v/v) CO2 for 24 h. Absorbance at 560 nm was measured using a Tecan GeniosPro plate reader (Tecan US, Durham, N.C.).

CC[C@H](C)[C@H](NC(=O)[C@H](CC(C)C)NC(=O)[C@@H](NC(=O)[C@H](Cc1ccccc1)NC(=O)[C@H](Cc1c[nH]c2ccccc12)NC(=O)[C@@H](N)Cc1ccccc1)[C@@H](C)O)C(=O)N[C@@H](CCCCN)C(=O)N[C@H](C(=O)N[C@@H](CCC(N)=O)C(=O)N[C@@H](C)C(=O)N[C@@H](CCCCN)C(=O)N[C@@H](CCC(N)=O)C(=O)N1CCC[C@H]1C(=O)N[C@@H](C)C(=O)N[C@@H](CCCNC(=N)N)C(=O)N[C@@H](Cc1ccc(O)cc1)C(=O)N[C@@H](CCCNC(=N)N)C(=O)N[C@@H](CCCNC(=N)N)C(=O)N[C@@H](Cc1ccccc1)C(=O)N[C@@H](CS)C(=O)O)[C@@H](C)O [10AN] (H-FWFTLIKTQAKQPARYRRFC-OH)
cytotoxicity (mitochondrial reductase activity of target cells): not due to toxicity
